Test results: patent US6495715B2, “Calcium channel blockers” (Warner-Lambert Company, priority 1997, dated 2002)
Where a name gives a salt, the structure may show the parent alone.

What was measured:
[1] = target: T1, N-type Ca2+ channel (Homo sapiens, UniProt Q00975); experiment: Measurement of N-type Ca2+ channel blocking potencies in IMR-32 cells using the fluorescent Ca2+ indicator Indo-1; type: cell-based; conditions: for IC50: K+-stimulated Ca2+ flux, 5 μM nitrendipine to block L-type channels; for inhibition at 1 µM: 1 μM compound, read-out: IMR 32 % of Blockade @ 1 μM; for inhibition at 1 µM / inhibition at 10 µM: 5 μM nitrendipine; for inhibition at 10 µM: 10 μM compound, read-out: IMR 32 % of Blockade @ 10 μM
T1 construct: host or cells: IMR-32 cells, differentiated with dibutyryl cAMP and bromodeoxyuridine
T1 sequence (Q00975 whole entry): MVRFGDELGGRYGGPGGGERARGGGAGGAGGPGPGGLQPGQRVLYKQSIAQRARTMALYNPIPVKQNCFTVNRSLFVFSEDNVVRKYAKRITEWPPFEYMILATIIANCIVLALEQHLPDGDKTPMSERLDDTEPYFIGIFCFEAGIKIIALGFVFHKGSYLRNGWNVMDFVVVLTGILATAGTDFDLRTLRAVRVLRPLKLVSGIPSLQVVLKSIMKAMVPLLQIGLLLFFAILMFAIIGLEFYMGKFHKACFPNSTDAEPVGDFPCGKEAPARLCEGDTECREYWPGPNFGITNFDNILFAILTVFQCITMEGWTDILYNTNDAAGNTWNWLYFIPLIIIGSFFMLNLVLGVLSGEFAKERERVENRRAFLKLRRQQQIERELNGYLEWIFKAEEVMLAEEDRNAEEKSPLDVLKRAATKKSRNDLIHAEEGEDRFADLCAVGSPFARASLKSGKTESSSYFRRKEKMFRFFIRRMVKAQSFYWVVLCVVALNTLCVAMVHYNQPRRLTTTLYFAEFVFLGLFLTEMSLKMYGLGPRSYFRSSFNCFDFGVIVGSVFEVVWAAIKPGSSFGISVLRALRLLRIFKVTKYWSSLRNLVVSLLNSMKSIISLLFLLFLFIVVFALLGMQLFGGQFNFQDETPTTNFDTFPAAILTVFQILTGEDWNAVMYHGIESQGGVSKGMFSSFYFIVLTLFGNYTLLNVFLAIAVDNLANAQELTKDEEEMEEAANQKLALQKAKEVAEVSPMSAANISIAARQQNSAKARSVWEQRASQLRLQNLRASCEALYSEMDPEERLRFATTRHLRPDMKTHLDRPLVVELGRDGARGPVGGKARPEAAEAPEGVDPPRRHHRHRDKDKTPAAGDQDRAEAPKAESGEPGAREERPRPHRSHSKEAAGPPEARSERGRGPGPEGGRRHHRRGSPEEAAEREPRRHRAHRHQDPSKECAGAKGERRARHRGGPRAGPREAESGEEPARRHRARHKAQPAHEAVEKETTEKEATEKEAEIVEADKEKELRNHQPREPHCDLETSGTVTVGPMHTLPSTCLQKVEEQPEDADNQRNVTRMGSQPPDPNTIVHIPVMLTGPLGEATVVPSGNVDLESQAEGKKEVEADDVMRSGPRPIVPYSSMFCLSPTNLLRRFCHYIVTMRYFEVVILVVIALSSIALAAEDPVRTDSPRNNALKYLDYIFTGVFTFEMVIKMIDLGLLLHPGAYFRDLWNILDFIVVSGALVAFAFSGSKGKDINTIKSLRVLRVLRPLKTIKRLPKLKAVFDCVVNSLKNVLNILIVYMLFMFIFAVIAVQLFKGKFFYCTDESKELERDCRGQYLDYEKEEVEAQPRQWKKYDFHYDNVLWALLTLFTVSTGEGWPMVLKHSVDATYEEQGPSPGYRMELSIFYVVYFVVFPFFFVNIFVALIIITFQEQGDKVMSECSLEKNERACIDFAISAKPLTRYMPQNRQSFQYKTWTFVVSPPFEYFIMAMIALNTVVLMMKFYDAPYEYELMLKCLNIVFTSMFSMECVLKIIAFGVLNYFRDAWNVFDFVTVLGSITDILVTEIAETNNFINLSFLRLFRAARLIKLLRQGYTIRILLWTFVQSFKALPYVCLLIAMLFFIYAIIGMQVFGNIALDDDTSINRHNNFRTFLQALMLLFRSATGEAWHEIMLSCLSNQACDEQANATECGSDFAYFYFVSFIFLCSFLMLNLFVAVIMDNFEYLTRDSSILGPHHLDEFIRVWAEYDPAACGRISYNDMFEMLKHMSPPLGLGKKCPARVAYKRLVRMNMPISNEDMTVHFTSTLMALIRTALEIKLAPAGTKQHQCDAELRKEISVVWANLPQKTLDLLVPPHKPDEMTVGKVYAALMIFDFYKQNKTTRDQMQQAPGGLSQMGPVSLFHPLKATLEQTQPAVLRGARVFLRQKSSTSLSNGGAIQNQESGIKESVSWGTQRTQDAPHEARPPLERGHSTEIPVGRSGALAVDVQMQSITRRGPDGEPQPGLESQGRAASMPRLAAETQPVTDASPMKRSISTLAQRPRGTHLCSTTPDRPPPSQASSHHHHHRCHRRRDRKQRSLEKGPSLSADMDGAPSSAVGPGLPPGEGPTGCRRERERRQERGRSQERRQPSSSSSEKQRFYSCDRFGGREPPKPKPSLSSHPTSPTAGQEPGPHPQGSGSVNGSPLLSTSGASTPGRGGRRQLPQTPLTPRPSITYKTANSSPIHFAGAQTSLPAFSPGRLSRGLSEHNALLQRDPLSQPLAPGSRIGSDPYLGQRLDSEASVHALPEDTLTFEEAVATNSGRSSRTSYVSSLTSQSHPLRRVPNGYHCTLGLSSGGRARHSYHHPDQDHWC
T1 sequence (P54289 25-956 partner limits assumed): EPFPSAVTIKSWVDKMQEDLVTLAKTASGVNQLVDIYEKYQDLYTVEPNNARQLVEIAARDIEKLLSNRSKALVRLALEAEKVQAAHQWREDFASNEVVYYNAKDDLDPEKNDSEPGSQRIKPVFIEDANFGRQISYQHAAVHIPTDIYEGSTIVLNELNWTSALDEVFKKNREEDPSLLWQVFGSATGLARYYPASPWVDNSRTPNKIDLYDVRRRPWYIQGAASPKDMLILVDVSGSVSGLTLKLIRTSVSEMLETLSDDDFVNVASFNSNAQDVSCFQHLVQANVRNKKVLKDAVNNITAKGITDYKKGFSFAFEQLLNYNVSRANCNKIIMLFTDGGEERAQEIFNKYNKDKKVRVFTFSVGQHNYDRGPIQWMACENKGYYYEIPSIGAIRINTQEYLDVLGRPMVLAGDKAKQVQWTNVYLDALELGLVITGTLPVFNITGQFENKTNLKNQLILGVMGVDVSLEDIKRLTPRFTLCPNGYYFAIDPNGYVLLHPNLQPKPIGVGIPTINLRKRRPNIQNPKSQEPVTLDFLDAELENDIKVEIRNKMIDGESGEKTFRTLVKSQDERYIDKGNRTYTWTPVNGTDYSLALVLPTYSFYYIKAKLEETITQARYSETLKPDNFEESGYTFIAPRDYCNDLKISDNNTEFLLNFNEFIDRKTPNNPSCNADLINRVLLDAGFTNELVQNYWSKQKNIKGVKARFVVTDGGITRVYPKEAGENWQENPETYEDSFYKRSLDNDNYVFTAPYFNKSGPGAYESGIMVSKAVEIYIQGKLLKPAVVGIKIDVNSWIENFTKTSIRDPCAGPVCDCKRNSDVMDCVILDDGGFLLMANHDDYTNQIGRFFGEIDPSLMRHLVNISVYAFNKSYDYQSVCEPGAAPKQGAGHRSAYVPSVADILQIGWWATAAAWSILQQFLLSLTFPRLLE
T1 sequence (P54289 957-1103 partner limits assumed): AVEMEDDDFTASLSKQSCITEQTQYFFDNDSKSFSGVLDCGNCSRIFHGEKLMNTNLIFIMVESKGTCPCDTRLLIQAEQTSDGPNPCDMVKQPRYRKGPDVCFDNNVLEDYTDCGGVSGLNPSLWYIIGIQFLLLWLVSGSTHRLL
T1 sequence (Q02641 whole entry partner): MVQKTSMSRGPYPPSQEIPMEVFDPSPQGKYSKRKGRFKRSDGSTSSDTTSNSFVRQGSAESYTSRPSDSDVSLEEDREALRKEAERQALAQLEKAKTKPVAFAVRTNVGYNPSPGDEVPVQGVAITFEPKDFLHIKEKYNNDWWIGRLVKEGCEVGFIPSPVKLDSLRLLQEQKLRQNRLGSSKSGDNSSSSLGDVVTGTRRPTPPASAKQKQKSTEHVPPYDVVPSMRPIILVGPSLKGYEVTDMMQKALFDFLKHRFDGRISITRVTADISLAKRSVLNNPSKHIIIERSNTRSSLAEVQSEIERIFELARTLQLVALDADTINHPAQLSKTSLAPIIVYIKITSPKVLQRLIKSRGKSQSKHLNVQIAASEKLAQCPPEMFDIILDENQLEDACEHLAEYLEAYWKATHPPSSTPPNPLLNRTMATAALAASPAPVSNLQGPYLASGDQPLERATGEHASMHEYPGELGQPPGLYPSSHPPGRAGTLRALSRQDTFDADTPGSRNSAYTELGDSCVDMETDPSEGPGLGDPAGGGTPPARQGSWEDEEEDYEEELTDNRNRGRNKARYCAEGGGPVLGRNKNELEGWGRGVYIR
Protocol: Measurement of N-type Ca^2+ Channel Blocking Potencies of Compounds in IMR-32 Cells Using the Fluorescent Ca^2+Indicator Indo-1
IMR-32 cells are a human tumoral cell line of neural origin. […] Calcium flux into these cells may be induced by stimulation with elevated potassium concentrations. The L-channel component of calcium flux may be blocked by adding 5 μM nitrendipine. The remaining component of calcium entry into the IMR-32 cells is due to calcium flux through N-type calcium channels. Intracellular calcium concentrations are measured using the fluorescent calcium indicator Indo-1. The effect of drug concentration on calcium uptake is studied.
The IMR-32 cell line was obtained from the American Type Culture Collection (Rockville, Md.). Cells were grown in Eagle's Minimum Essential Medium with Earle's salts supplemented with 10% fetal bovine serum, 2 mM L-Gln and antibiotic/antimycotic mixture (Gibco). […] After 7 to 13 days of differentiation, cells were detached using 0.5 mM EDTA and loaded with 5 μM Indo-1 acetoxymethyl ester (Molecular Probes, Eugene, Oreg.) at 30° C. for 45 minutes. Loaded cells were washed twice, resuspended (˜10^7 cells/mL) in assay buffer (10 mM HEPES/Tris pH 7.4 in Hank's Balanced Salt Solution without bicarbonate or phenol red containing 0.5% bovine serum albumin) and kept on ice until use. Fluorescence measurements were carried out in a Photon Technology International (PTI, South Brunswick, N.J.) Model RF-F3004 spectrofluorometer with dual emission monochromators using excitation at […] and emission at 400 and 490 nm. The instrument was equipped with a thermostated cuvette holder with stirring capabilities as well as with a computer-controlled pump which allowed for reagent addition during measurement. Instrument control and data collection was done by PTI's OSCAR software running on an IBM compatible computer. Different concentrations of the test compounds (60 μL in dimethyl sulfoxide) were added to 5.94 mL of assay buffer containing approximately 3×10^6 loaded cells, and 5 μM Nitrendipine (in […] EtOH) to block L-type Ca^2+ channels. Samples were incubated for 10 minutes at 30° C. and then aliquoted into three 10×10 mm disposable acrylic cuvettes. Emission signals at 400 and 490 nm were acquired from each cuvette at 30° C. for 50 seconds. At 20 seconds after the start of reading, cells were depolarized by the addition of 160 μL of stimulation solution (1 M KCl, 68 mM CaCl2) to the cuvette via the computer-controlled pump. Ratio of dual emission signals (400 nm/490 nm), which is proportional to intracellular Ca^2+ concentration, was plotted against time, and the difference between maximal response after stimulation and basal value (before stimulation) was determined. Values obtained in this way were plotted as a function of drug concentration. IC50 values of test compounds were calculated by fitting a four-parameter logistic function to the data using the least squares method.

[2] = system: DBA/2 mice; experiment: Audiogenic seizure (anticonvulsant) test in DBA/2 mice; type: in vivo; conditions: Mus musculus, intravenous, sound-induced tonic seizures, tested 15 or 45 minutes after injection, read-out: DBA/2 mice % Protection
Protocol: In vivo Biological Protocol:
A compound of the present invention was dissolved in water using 10% (weight/volume) Emulphor (GAF Corp., Wayne, N.J.) surfactant. Substances were administered by intravenous injection into the retro-orbital venous sinus. All testing was performed 15 minutes or 45 minutes after drug injection. All the male mice, 3-4 weeks old were obtained from Jackson Laboratories Bar Harbour, Me. Immediately before anticonvulsant testing, mice were placed upon a wire mesh, 4 inches square suspended from a steel rod. The square was slowly inverted through 180 degrees and mice observed for 30 seconds. Any mouse falling from the wire mesh was scored as ataxia.
Mice were placed into an enclosed acrylic plastic chamber (21 cm height, approximately 30 cm diameter) with a high-frequency speaker (4 cm diameter) in the center of the top lid. An audio signal generator (Protek model B-810) was used to produce a continuous sinusoidal tone that was swept linearly in frequency between 8 kHz and 16 kHz once each 10 msec. The average sound pressure level (SPL) during stimulation was approximately 100 dB at the floor of the chamber. Mice were placed within the chamber and allowed to acclimatize for 1 minute. DBA/2 mice in the vehicle-treated group responded to the sound stimulus (applied until tonic extension occurred, or for a maximum of 60 sec) with a characteristic seizure sequence consisting of wild running followed by clonic seizures, and later by tonic extension, and finally by respiratory arrest and death in 80% or more of the mice. In vehicle-treated mice, the entire sequence of seizures to respiratory arrest lasts approximately 15-20 seconds.
The incidence of all the seizure phases in the drug-treated and vehicle-treated mice was recorded, and the occurrence of tonic seizures were used for calculating anticonvulsant ED50 values by probit analysis. Mice were used only once for testing at each time and dose point.

Row | IC50 [1] [nM] | inhibition at 1 µM [1] [%] | inhibition at 10 µM [1] [%] | SMILES | responders at 30 mg/kg [2] [%] | responders at 10 mg/kg [2] [%]
1 | 260 |  |  | CC(C)=CCN(CC(C)(C)NC(=O)[C@H](CC(C)C)NC(=O)N1CCCCCC1)c1ccc(OCc2ccccc2)cc1 [Example 1] | 60 | 
2 | 180 |  |  | CC(C)CCN(c1ccc(NCCC(C)(C)C)cc1)C1CCN(C(=O)[C@H](CC(C)C)NC(=O)N2CCCCCC2)CC1 [Example 36, (S)-Azepane-1-carboxylic acid (1-{4-[[4-(3,3-dimethyl-butylamino)-phenyl]-(3-methyl-butyl)-amino]-piperidine-1-carbonyl}-3-methyl-butyl)-amide] | 80 | 
3 | 490 |  |  | CC(C)CCN(c1ccc(NCc2ccc(N(C)C)cc2)cc1)C1CCN(C(=O)[C@H](CC(C)C)NC(=O)N2CCCCCC2)CC1 [Example 41, (S)-Azepane-1-carboxylic acid (1-{4-[[4-(4-dimethylamino-benzylamino)-phenyl]-(3-methyl-butyl)-amino]-piperidine-1-carbonyl}-3-methyl-butyl)-amide] | 20 | 
4 |  | 39 | 90 | CCC(C)[C@H](N)C(=O)N1CCC(N(CC=C(C)C)c2ccc(OCc3ccccc3)cc2)CC1 (stereo partly drawn) [Example 22, (S)-2-Amino-1-{4-[(4-benzyloxy-phenyl)-(3-methyl-but-2-enyl)-amino]-piperidin-1-yl}-3-methyl-pentan-1-one] |  | 100
5 | 1800 |  |  | CC(C)CCN(c1ccc(NCCC(C)O)cc1)C1CCN(C(=O)[C@H](CC(C)C)NC(=O)N2CCCCCC2)CC1 (stereo partly drawn) [Example 38, (S)-Azepane-1-carboxylic acid (1-{4-[[4-(3-hydroxy-butylamino)-phenyl]-(3-methyl-butyl)-amino]-piperidine-1-carbonyl}-3-methyl-butyl)-amide] | 60 | 
6 |  | 54 | 82 | CC(C)=CCN(CC(C)(C)NC(=O)[C@H](CC(C)C)N(C)CC=C(C)C)c1ccc(OCc2ccccc2)cc1 [Example 10, (S)-4-Methyl-2-[methyl-(3-methyl-but-2-enyl)-amino]-pentanoic acid {2-[(4-benzyloxy-phenyl)-(3-methyl-but-2-enyl)-amino]-1,1-dimethyl-ethyl}-amide] | 80 | 
7 | 2200 |  |  | CC(C)CCN(c1ccc(N)cc1)C1CCN(C(=O)[C@H](CC(C)C)NC(=O)N2CCCCCC2)CC1 [Example 35, (S)-Azepane-1-carboxylic acid (1-{4-[(4-amino-phenyl)-(3-methyl-butyl)-amino]-piperidine-1-carbonyl}-3-methyl-butyl)-amide] | 20 | 
8 | 2400 |  |  | CC(C)=CCN(c1ccc(OCc2ccccc2)cc1)C1CCN(C(=O)[C@@H](N)CC(C)C)CC1 [Example 20, (S)-2-Amino-1-{4-[(4-benzyloxy-phenyl)-(3-methyl-but-2-enyl)-amino]-piperidin-1-yl}-4-methyl-pentan-1-one] |  | 100
9 | 500 |  |  | CC(C)=CCN(c1ccc(OCc2ccccc2)cc1)C1CCN(C(=O)[C@H](CC(C)C)NC(=O)N2CCCCCC2)CC1 [Example 5, (S)-Azepane-1-carboxylic acid (1-{4-[(4-benzyloxy-phenyl)-(3-methyl-but-2-enyl)-amino]-piperidine-1-carbonyl}-3-methyl-butyl)-amide hydrochloride salt] |  | 
10 |  | 57 | 80 | CC(C)CCN(C)[C@@H](CC(C)C)C(=O)NC(C)(C)CN(c1ccc(OCc2ccccc2)cc1)C1C=CCCC1 (stereo partly drawn) [Example 17, (S)-4-Methyl-2-[methyl-(3-methyl-butyl)-amino]-pentanoic acid {2-[(4-benzyloxy-phenyl)-cyclohex-2-enyl-amino]-1,1-dimethyl-ethyl}-amide] |  | 
11 | 2500 |  |  | CC(C)C[C@H](NC(=O)N1CCCCCC1)C(=O)N1CCC(Nc2ccc(OCc3ccccc3)cc2)CC1 [Example 28, (S)-Azepane-1-carboxylic acid {1-[4-(4-benzyloxy-phenylamino)-piperidine-1-carbonyl]-3-methyl-butyl}-amide] |  | 
12 |  | 50 | 100 | CC(C)CCN(c1ccc(OCc2ccccc2)cc1)C1CCN(C(=O)[C@@H](N)CC(C)C)CC1 [Example 44, (S)-2-Amino-1-{4-[(4-benzyloxy-phenyl)-(3-methyl-butyl)-amino]-piperidin-1-yl}-4-methyl-pentan-1-one] |  | 20
13 | 400 |  |  | CC(C)CCN(c1ccc(NCc2ccccc2)cc1)C1CCN(C(=O)[C@H](CC(C)C)NC(=O)N2CCCCCC2)CC1 [Example 39, (S)-Azepane-1-carboxylic acid (1-{4-[(4-benzylamino-phenyl)-(3-methyl-butyl)-amino]-piperidine-1-carbonyl}-3-methyl-butyl)-amide] |  | 
14 | 1600 |  |  | CC(C)=CCN(CC(C)(C)NC(=O)[C@H](CC(C)C)N(C)C)c1ccc(OCc2ccccc2)cc1 [Example 9, (S)-2-Dimethylamino-4-methyl-pentanoic acid {2-[(4-benzyloxy-phenyl)-(3-methyl-but-2-enyl)-amino]-1,1-dimethyl-ethyl}-amide] |  | 
15 | 630 |  |  | CC(C)=CCN(CC(C)(C)NC(=O)[C@H](CC(C)C)N(C)C1C=CCCC1)c1ccc(OCc2ccccc2)cc1 (stereo partly drawn) [Example 12, (S)-2-(Cyclohex-2-enyl-methyl-amino)-4-methyl-pentanoic acid {2-[(4-benzyloxy-phenyl)-(3-methyl-but-2-enyl)-amino]-1,1-dimethyl-ethyl}-amide] |  | 
16 |  | 55 | 76 | CC(C)C[C@H](NC(=O)N1CCCCCC1)C(=O)NC(C)(C)CN(c1ccc(OCc2ccccc2)cc1)C1C=CCCC1 (stereo partly drawn) [Example 8, (S)-Azepane-1-carboxylic acid (1-{2-[(4-benzyloxy-phenyl)-cyclohex-2-enyl-amino]-1,1-dimethyl-ethylcarbamoyl}-3-methyl-butyl)-amide] |  | 

Row | SMILES | IC50 [1] [nM] | inhibition at 1 µM [1] [%] | inhibition at 10 µM [1] [%] | responders at 30 mg/kg [2] [%] | responders at 10 mg/kg [2] [%]
17 | CC(C)=CCN(c1ccc(OCc2ccccc2)cc1)C1CCN(C[C@@H](N)CC(C)C)CC1 [Example 47, (S)-[1-(2-Amino-4-methyl-pentyl)-piperidin-4-yl]-(4-benzyloxy-phenyl)-(3-methyl-but-2-enyl)-amine] |  | 44 | 100 |  | 80
18 | CC(C)CC(NC(=O)N1CCCCCC1)C(=O)N1CCC(N(CCC(C)O)c2ccc(OCc3ccccc3)cc2)CC1 (stereo not shown) [Example 32, Azepane-1-carboxylic acid (1-{4-[(4-benzyloxy-phenyl)-(3-hydroxy-butyl)-amino]-piperidine-1-carbonyl}-3-methyl-butyl)-amide] | 4600 |  |  | 60 | 
19 | CC(C)=CCN(c1ccc(OCc2ccccc2)cc1)C1CCN(C(=O)[C@H](CC(C)C)NCCC(C)C)CC1 [Example 25, (S)-1-{4-[(4-Benzyloxy-phenyl)-(3-methyl-but-2-enyl)-amino]-piperidin-1-yl}-4-methyl-2-(3-methyl-butylamino)-pentan-1-one] | 480 |  |  | 80 | 
